Literature values in patent publication US20060135482A1, “Use of fosinopril to reduce cardiovascular events in disalysis patients” (priority 2002, published 2006).
Read-outs that look alike come from different tables or passages of the source.

What was measured:
[1] = patients Clcr<30 ml/min
[2] = normal liver and kidney function; hepatic clearance increases if renal function impaired
[3] = 10 days; renal insufficiency patients
[4] = varying degrees of renal insufficiency incl. severe (Clcr<10 ml/min); relative to normal renal function
[5] = blood dialysis or peritoneal dialysis patients with terminal renal insufficiency

Question: For `CCOC(=O)[C@H](CCc1ccccc1)N[C@@H](C)C(=O)N1CCC[C@H]1C(=O)O` [enalapril], which “AUCd10/AUCd1 (accumulation ratio, area under the curve day 10/day 1)” value ([1]; enalapril 2.5 mg/day for 10 days, p=0.02 versus fosinopril) is on record?
Answer: The value was 1.96.

Question: For `CCC(=O)O[C@@H](O[P@](=O)(CCCCc1ccccc1)CC(=O)N1C[C@H](C2CCCCC2)C[C@H]1C(=O)O)C(C)C` [fosinopril, (2S,4S)-4-cyclohexyl-1-[2-[(R)-[[(S)-2-methyl-1-(propanoyl-oxy)propyl]oxy](4-phenylbutyl)phosphinoyl]acetyl]pyrrolidine-2-carboxylic acid], which “AUCd10/AUCd1 (accumulation ratio, area under the curve day 10/day 1)” value ([1]; fosinopril 10 mg/day for 10 days, comparison versus enalapril, p=0.02) is on record?
Answer: The value was 1.41.

Question: What about the “AUCd10/AUCd1 (accumulation ratio, area under the curve day 10/day 1)” value ([1]; fosinopril 10 mg/day for 10 days, comparison versus lisinopril, p<0.001) of the same compound?
Answer: Its value is 1.3.

Question: What about the Elimination route [2] of the same compound?
Answer: Its Elimination route is “eliminated in equal parts via the liver and the kidneys”.

Question: And the “Accumulation on repeated administration” value [3]?
Answer: The value was “accumulates less than enalapril or lisinopril”.

Question: And the “Total clearance of the medicament” value [4]?
Answer: Its value is “about half of that observed in an individual with normal renal function”.

Question: What about the Pharmacokinetic parameters [5] of the same compound?
Answer: The Pharmacokinetic parameters was “remain comparable with those observed in patients with mild, moderate or severe renal insufficiency”.

Question: Which “AUCd10/AUCd1 (accumulation ratio, area under the curve day 10/day 1)” value ([1]; lisinopril 5 mg/day for 10 days, p<0.001 versus fosinopril) does the source give for `NCCCC[C@H](N[C@@H](CCc1ccccc1)C(=O)O)C(=O)N1CCC[C@H]1C(=O)O` [lisinopril] here?
Answer: The value was 2.57.
